In US5883294A, “Selective thyroid hormone analogs” (The Regeants of the University of California, priority 1997, dated 1999):
pIC50: −log10 of the molar value.

Target: T1, TR α1 (Rattus norvegicus, UniProt P63059)
T1 construct: made in house; host or cells: E. coli
Assay: Receptor Binding Assays of TR Ligands ([125I]T3 displacement), TR α1

T1 sequence (P63059 other isoform, or with tags, fused parts or gaps): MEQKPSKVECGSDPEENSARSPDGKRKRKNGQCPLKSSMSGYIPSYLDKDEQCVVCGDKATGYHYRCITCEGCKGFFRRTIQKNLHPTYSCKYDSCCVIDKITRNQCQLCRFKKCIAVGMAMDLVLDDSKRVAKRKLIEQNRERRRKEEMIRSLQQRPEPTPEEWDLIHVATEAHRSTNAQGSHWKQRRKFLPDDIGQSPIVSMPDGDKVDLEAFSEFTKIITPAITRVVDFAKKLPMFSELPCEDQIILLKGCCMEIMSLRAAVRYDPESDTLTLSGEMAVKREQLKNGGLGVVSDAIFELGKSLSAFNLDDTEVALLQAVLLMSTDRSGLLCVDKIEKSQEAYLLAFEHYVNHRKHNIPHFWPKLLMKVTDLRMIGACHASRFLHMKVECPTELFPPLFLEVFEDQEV

Compound `Cc1cc(OCC(=O)O)cc(C)c1Cc1ccc(O)c(C(C)C)c1` [GC1, [3,5-dimethyl-4-(4'-hydroxy-3'-isopropylbenzyl)-phenoxy] acetic acid] has a pIC50 of 7.70.
